From US20250296959A1, “B7-H3 TARGETING PEPTIDES AND CONSTRUCTS THEREOF” (Mariana Oncology Inc., priority 2024, published 2025) come the findings set out here.

This assay has as its target T1, human 4lg B7-H3 (Homo sapiens, UniProt Q5ZPR3).
T1 sequence (Q5ZPR3 29-534): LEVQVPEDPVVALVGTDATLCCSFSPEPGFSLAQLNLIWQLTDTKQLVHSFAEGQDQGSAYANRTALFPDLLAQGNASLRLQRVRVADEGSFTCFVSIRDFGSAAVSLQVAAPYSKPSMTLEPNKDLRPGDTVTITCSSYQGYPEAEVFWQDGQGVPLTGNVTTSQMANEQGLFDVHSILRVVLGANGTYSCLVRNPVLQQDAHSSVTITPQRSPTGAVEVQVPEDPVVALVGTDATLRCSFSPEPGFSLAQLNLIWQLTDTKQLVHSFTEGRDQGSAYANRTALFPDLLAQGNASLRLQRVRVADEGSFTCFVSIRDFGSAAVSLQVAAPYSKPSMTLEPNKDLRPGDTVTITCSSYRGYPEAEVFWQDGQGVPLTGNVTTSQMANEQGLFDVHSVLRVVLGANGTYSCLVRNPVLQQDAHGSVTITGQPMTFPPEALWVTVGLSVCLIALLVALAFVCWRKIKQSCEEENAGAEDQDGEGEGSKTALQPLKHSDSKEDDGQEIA
Kind of assay: Affinity determination by surface plasmon resonance (SPR) to 4Ig B7-H3. As to conditions: 4Ig B7-H3. Background: In SPR one partner is held on a chip, and binding of the other changes the refractive index at the surface.

[1] abbreviates: SPR KD—37° C., 37° C. flow cell temperature.
Setting [2] is: SPR KD—25° C., 25° C. flow cell temperature.

Each structure is given as a SMILES string. Starred links: 1 amine or outer side, 2 acyl side, 3 side chain; linkers in the order of their positions; H or OH if unused. Positions of bridges follow the written chain, without caps; N, C: chain ends. Non-standard residues stand in square brackets, D forms with d. Residues, ends and D or L forms follow the SMILES beside them. Groups on a side chain read outwards from the residue. *: point of attachment. Ala(piperidin-4-yl) = O=C([C@H](CC1CCN([*:3])CC1)N[*:1])[*:2]; DOTA = O=C(O)CN1CCN(CC(=O)O)CCN(CC(=O)*)CCN(CC(=O)O)CC1; Phe(4-NHCONH2) = NC(=O)Nc1ccc(C[C@H](N)C(=O)O)cc1; Trp(5-F) = N[C@@H](Cc1c[nH]c2ccc(F)cc12)C(=O)O; X1 = C[C@@H](c1ccccc1)[C@H](N[*:1])C(=O)[*:2]; γGlu = O=C(O)[C@H](CCC(=O)[*:2])N[*:1]; 1Nal = N[C@@H](Cc1cccc2ccccc12)C(=O)O; Ala(4-THP) = N[C@@H](CC1CCOCC1)C(=O)O; Val(3-OH) = CC(C)(O)[C@H](N)C(=O)O; 4Pal = N[C@@H](Cc1ccncc1)C(=O)O; Chg = N[C@H](C(=O)O)C1CCCCC1; PEG4 = NCCOCCOCCOCCOCCC(=O)O; Tle = CC(C)(C)[C@H](N)C(=O)O; hLeu = CC(C)CC[C@H](N)C(=O)O; αMeP = C[C@@]1(C(=O)O)CCCN1; NMeS = CN[C@@H](CO)C(=O)O; Nle = CCCC[C@H](N)C(=O)O; Orn = NCCC[C@H](N)C(=O)O; βAla = NCCC(=O)O

By Kd is commonly meant a measure of binding affinity in units of concentration. Read a low Kd as tighter binding. With `CC(=O)N[C@@H](CCC(C)C)C(=O)N[C@@H](Cc1ccc(O)cc1)C(=O)N[C@H]1CSSC[C@@H](C(=O)N[C@@H](Cc2cccc3ccccc23)C(=O)N[C@@H](Cc2ccccc2)C(=O)N[C@H](C(=O)N[C@H](CCCCNC(=O)CC[C@H](NC(=O)CN2CCN(CC(=O)O)CCN(CC(=O)O)CCN(CC(=O)O)CC2)C(=O)O)C(=O)O)C(C)(C)O)NC(=O)[C@H](Cc2ccc(O)cc2)NC(=O)[C@H](C(C)C)NC(=O)[C@H](CC(=O)O)NC(=O)[C@H](CC2CCOCC2)NC(=O)[C@H](CC2CCNCC2)NC(=O)CNC(=O)[C@H](C(C)(C)C)NC1=O` [compound 441, Ac-hLeu-Y-C-Tbg-G-PipAla-ThpA-D-V-Y-C-1Nal-F-hydroxyVal-dLys(gGlu-DOTA)-COOH] (Ac-[hLeu]YC[Tle]G[Ala(piperidin-4-yl)][Ala(4-THP)]DVYC[1Nal]F[Val(3-OH)][dK]([γGlu-DOTA])-OH; disulfide 3-11), the dissociation constant (Kd) under setting [1] is less than 0.001 µM.
Compound `CC(=O)N[C@@H](CCC(C)C)C(=O)N[C@@H](Cc1ccc(O)cc1)C(=O)N[C@H]1CSSC[C@@H](C(=O)N[C@@H](Cc2c[nH]c3ccccc23)C(=O)N[C@@H](Cc2ccccc2)C(=O)N[C@H](C(N)=O)[C@@H](C)O)NC(=O)[C@H](Cc2ccc(O)cc2)NC(=O)[C@H](CCCCNC(=O)CN2CCN(CC(=O)O)CCN(CC(=O)O)CCN(CC(=O)O)CC2)NC(=O)[C@H](CC(=O)O)NC(=O)[C@H](Cc2ccc(O)cc2)NC(=O)[C@H](CCCCN)NC(=O)CNC(=O)[C@H](C(C)C)NC1=O` [compound 143, Ac-hLeu-Y-C-V-G-K-Y-D-Lys(DOTA)-Y-C-W-F-Thr-CONH2] (Ac-[hLeu]YCVGKYDK(DOTA)YCWFT-NH2; disulfide 3-11) showed a Kd under setting [2] of 0.01 to 0.1 µM.
Regarding `CC(=O)N[C@@H](CCC(C)C)C(=O)N[C@@H](Cc1ccc(O)cc1)C(=O)N[C@H]1CSSC[C@@H](C(=O)N[C@@H](Cc2c[nH]c3ccc(F)cc23)C(=O)N[C@H](C(=O)N[C@H](C(=O)N[C@H](CCCCNC(=O)[C@H](CCC(=O)O)NC(=O)CN2CCN(CC(=O)O)CCN(CC(=O)O)CCN(CC(=O)O)CC2)C(=O)O)C(C)(C)O)[C@@H](C)c2ccccc2)NC(=O)[C@H](Cc2ccc(NC(N)=O)cc2)NC(=O)[C@H](C(C)C)NC(=O)[C@H](CC(=O)O)NC(=O)[C@H](CC2CCOCC2)NC(=O)[C@H](CC2CCNCC2)NC(=O)CNC(=O)[C@H](C(C)(C)C)NC1=O` [compound 503, Ac-hLeu-Y-C-Tbg-G-PipAla-ThpA-D-V-Aph(Cbm)-C-5FW-[(2S, 3S)beta-Me-Phe]-hydroxyVal-dLys(Glu-DOTA)-COOH] (Ac-[hLeu]YC[Tle]G[Ala(piperidin-4-yl)][Ala(4-THP)]DV[Phe(4-NHCONH2)]C[Trp(5-F)][X1][Val(3-OH)][dK]([Glu-DOTA])-OH; disulfide 3-11), the Kd under setting [1] was less than 0.001 µM.
In the case of `CC(=O)N[C@@H](CCC(C)C)C(=O)N[C@H](C(=O)N[C@H]1CSSC[C@@H](C(=O)N[C@@H](Cc2c[nH]c3ccc(F)cc23)C(=O)N[C@@H](Cc2ccccc2)C(=O)N(C)[C@@H](CO)C(=O)N[C@H](CCCCNC(=O)CN2CCN(CC(=O)O)CCN(CC(=O)O)CCN(CC(=O)O)CC2)C(N)=O)NC(=O)[C@H](Cc2ccc(O)cc2)NC(=O)[C@H](C(C)C)NC(=O)[C@H](CC(=O)O)NC(=O)[C@H](Cc2ccc(O)cc2)NC(=O)[C@H](CC2CCNCC2)NC(=O)CNC(=O)[C@H](C(C)C)NC1=O)C1CCCCC1` [compound 212, Ac-hLeu-Chg-C-V-G-PipAla-Y-D-V-Y-C-5FW-F-NMeSer-dLys(DOTA)-CONH2] (Ac-[hLeu][Chg]CVG[Ala(piperidin-4-yl)]YDVYC[Trp(5-F)]F[NMeS][dK](DOTA)-NH2; disulfide 3-11), the dissociation constant Kd under setting [2] was 0.1 to 0.3 µM.
The same measure, in the same setting: to `CCCC[C@H](NC(C)=O)C(=O)N[C@@H](Cc1ccc(O)cc1)C(=O)N[C@H]1CSSC[C@@H](C(=O)N[C@@H](Cc2c[nH]c3ccccc23)C(=O)N[C@@H](Cc2ccccc2)C(=O)N[C@H](C(=O)N[C@H](CCCCNC(=O)CN2CCN(CC(=O)O)CCN(CC(=O)O)CCN(CC(=O)O)CC2)C(N)=O)[C@@H](C)O)NC(=O)[C@H](Cc2ccc(O)cc2)NC(=O)[C@H](C(C)C)NC(=O)[C@H](CC(=O)O)NC(=O)[C@H](Cc2ccc(O)cc2)NC(=O)[C@H](CCCN)NC(=O)CNC(=O)[C@H](C(C)C)NC1=O` [compound 63, Ac-Nle-Y-C-V-G-Orn-Y-D-V-Y-C-W-F-Thr-dLys(DOTA)-CONH2] (Ac-[Nle]YCVG[Orn]YDVYCWFT[dK](DOTA)-NH2; disulfide 3-11) belongs 0.001 to 0.01 µM; to `CCCC[C@H](NC(C)=O)C(=O)N[C@@H](Cc1ccc(O)cc1)C(=O)N[C@H]1CSSC[C@@H](C(=O)N[C@@H](Cc2c[nH]c3ccccc23)C(=O)N[C@@H](Cc2ccccc2)C(=O)N[C@H](C(=O)N[C@H](CCCCNC(=O)CN2CCN(CC(=O)O)CCN(CC(=O)O)CCN(CC(=O)O)CC2)C(N)=O)[C@@H](C)O)NC(=O)[C@H](Cc2ccc(O)cc2)NC(=O)[C@H](C(C)C)NC(=O)[C@H](CC(=O)O)NC(=O)[C@H](Cc2ccncc2)NC(=O)[C@H](CCCCN)NC(=O)CNC(=O)[C@H](C(C)C)NC1=O` [compound 58, Ac-Nie-Y-C-V-G-K-4PyA-D-V-Y-C-W-F-Thr-dLys(DOTA)-CONH2] (Ac-[Nle]YCVGK[4Pal]DVYCWFT[dK](DOTA)-NH2; disulfide 3-11), 0.001 to 0.01 µM.
As for `CC(=O)N[C@@H](CCC(C)C)C(=O)N[C@@H](Cc1ccc(O)cc1)C(=O)N[C@H]1CSSC[C@@H](C(=O)N[C@@H](Cc2c[nH]c3ccc(F)cc23)C(=O)N[C@@H](Cc2ccccc2)C(=O)N[C@H](C(=O)N[C@H](CCCCNC(=O)CN2CCN(CC(=O)O)CCN(CC(=O)O)CCN(CC(=O)O)CC2)C(=O)O)C(C)(C)O)NC(=O)[C@H](Cc2ccc(O)cc2)NC(=O)[C@H](C(C)C)NC(=O)[C@H](CC(=O)O)NC(=O)[C@H](CC2CCC(O)CC2)NC(=O)[C@H](CC2CCNCC2)NC(=O)CNC(=O)[C@H](C(C)(C)C)NC1=O` (single isomer, unassigned) [compound 479, Ac-hLeu-Y-C-Tbg-G-PipAla-4OHCha(pk1)-D-V-Y-C-5FW-F-hydroxyVal-dLys(DOTA)-COOH], the Kd under setting [1] was less than 0.001 µM.
Take `CCCC[C@H](NC(C)=O)C(=O)N[C@@H](Cc1ccc(O)cc1)C(=O)N[C@H]1CSSC[C@@H](C(=O)N[C@@H](Cc2c[nH]c3ccccc23)C(=O)N[C@@H](Cc2ccccc2)C(=O)N[C@H](C(N)=O)[C@@H](C)O)NC(=O)[C@H](Cc2ccc(O)cc2)NC(=O)[C@H](C(C)C)NC(=O)[C@H](CC(=O)O)NC(=O)[C@H](Cc2ccc(O)cc2)NC(=O)[C@H](CCCCN)NC(=O)CNC(=O)[C@H](C(C)C)NC1=O` [compound 32, Ac-Nle-Y-C-V-G-K-Y-D-V-Y-C-W-F-Thr-CONH2] (Ac-[Nle]YCVGKYDVYCWFT-NH2; disulfide 3-11): the dissociation constant (Kd) runs as follows: under setting [2], 0.001 to 0.01 µM; under setting [1], 0.01 to 0.1 µM.
As for `CC(=O)N[C@@H](CCC(C)C)C(=O)N[C@@H](Cc1ccc(O)cc1)C(=O)N[C@H]1CSSC[C@@H](C(=O)N[C@@H](Cc2cccc3ccccc23)C(=O)N[C@@H](Cc2ccccc2)C(=O)N2CCC[C@@]2(C)C(=O)N[C@H](CCCCNC(=O)CN2CCN(CC(=O)O)CCN(CC(=O)O)CCN(CC(=O)O)CC2)C(N)=O)NC(=O)[C@H](Cc2ccc(O)cc2)NC(=O)[C@H](C(C)C)NC(=O)[C@H](CC(=O)O)NC(=O)[C@H](Cc2ccc(O)cc2)NC(=O)[C@H](CCCCN)NC(=O)CNC(=O)[C@H](C(C)(C)C)NC1=O` [compound 246, Ac-hLeu-Y-C-Tbg-G-K-Y-D-V-Y-C-1Nal-F-aMePro-dLys(DOTA)-CONH2] (Ac-[hLeu]YC[Tle]GKYDVYC[1Nal]F[αMeP][dK](DOTA)-NH2; disulfide 3-11), the Kd under setting [2] lay within 0.001 to 0.01 µM.
Consider `CC(=O)N[C@@H](CCC(C)C)C(=O)N[C@@H](Cc1ccc(O)cc1)C(=O)N[C@H]1CSSC[C@@H](C(=O)N[C@@H](Cc2c[nH]c3ccc(F)cc23)C(=O)N[C@H](C(=O)N[C@H](C(=O)N[C@@H](CCCCNC(=O)CN2CCN(CC(=O)O)CCN(CC(=O)O)CCN(CC(=O)O)CC2)C(=O)O)C(C)(C)O)[C@@H](C)c2ccccc2)NC(=O)[C@H](Cc2ccc(O)cc2)NC(=O)[C@H](C(C)C)NC(=O)[C@H](CC(=O)O)NC(=O)[C@H](CC2CCOCC2)NC(=O)[C@H](CC2CCNCC2)NC(=O)CNC(=O)[C@H](C(C)(C)C)NC1=O` [compound 509, Ac-hLeu-Y-C-Tbg-G-PipAla-ThpA-D-V-Y-C-5FW-[(2S, 3S)beta-Me-Phe]-hydroxyVal-Lys(DOTA)-COOH] (Ac-[hLeu]YC[Tle]G[Ala(piperidin-4-yl)][Ala(4-THP)]DVYC[Trp(5-F)][X1][Val(3-OH)]K(DOTA)-OH; disulfide 3-11), for which the Kd under setting [1] is less than 0.001 µM.
Same read-out and setting: to `CC(=O)N[C@@H](CCC(C)C)C(=O)N[C@@H](Cc1ccc(O)cc1)C(=O)N[C@H]1CSSC[C@@H](C(=O)N[C@@H](Cc2c[nH]c3ccc(F)cc23)C(=O)N[C@H](C(=O)N[C@H](C(=O)NCCC(=O)O)C(C)(C)O)[C@@H](C)c2ccccc2)NC(=O)[C@H](Cc2ccc(O)cc2)NC(=O)[C@H](C(C)C)NC(=O)[C@H](CC(=O)O)NC(=O)[C@H](CC2CCN(C(=O)CCOCCOCCOCCOCCNC(=O)CN3CCN(CC(=O)O)CCN(CC(=O)O)CCN(CC(=O)O)CC3)CC2)NC(=O)[C@H](CC2CCNCC2)NC(=O)CNC(=O)[C@H](C(C)(C)C)NC1=O` [compound 511, Ac-hLeu-Y-C-Tbg-G-PipAla-Pip(PEG4-DOTA)Ala-D-V-Y-C-5FW-[(2S, 3S)beta-Me-Phe]-hydroxyVal-betaAla-COOH] (Ac-[hLeu]YC[Tle]G[Ala(piperidin-4-yl)][Ala(piperidin-4-yl)]([PEG4-DOTA])DVYC[Trp(5-F)][X1][Val(3-OH)][βAla]-OH; disulfide 3-11) belongs less than 0.001 µM.
